Measured values: patent publication US20120027687A1, “FATTY ACID PROTEIN KINASE C ACTIVATORS AND ANTICOAGULANT FOR THE TREATMENT OF STROKE” (priority 2010, published 2012)

How the values were obtained:
PKCε = target: T1, PKCε (Homo sapiens, UniProt Q02156); assay: PKC assay with purified PKCε; assay type: biochemical; settings: for effect on purified PKCε (FIG. 7, FIG. 8): preincubated five minutes, radiometric
T1 construct: purchased Calbiochem
T1 sequence (Q02156 1-737): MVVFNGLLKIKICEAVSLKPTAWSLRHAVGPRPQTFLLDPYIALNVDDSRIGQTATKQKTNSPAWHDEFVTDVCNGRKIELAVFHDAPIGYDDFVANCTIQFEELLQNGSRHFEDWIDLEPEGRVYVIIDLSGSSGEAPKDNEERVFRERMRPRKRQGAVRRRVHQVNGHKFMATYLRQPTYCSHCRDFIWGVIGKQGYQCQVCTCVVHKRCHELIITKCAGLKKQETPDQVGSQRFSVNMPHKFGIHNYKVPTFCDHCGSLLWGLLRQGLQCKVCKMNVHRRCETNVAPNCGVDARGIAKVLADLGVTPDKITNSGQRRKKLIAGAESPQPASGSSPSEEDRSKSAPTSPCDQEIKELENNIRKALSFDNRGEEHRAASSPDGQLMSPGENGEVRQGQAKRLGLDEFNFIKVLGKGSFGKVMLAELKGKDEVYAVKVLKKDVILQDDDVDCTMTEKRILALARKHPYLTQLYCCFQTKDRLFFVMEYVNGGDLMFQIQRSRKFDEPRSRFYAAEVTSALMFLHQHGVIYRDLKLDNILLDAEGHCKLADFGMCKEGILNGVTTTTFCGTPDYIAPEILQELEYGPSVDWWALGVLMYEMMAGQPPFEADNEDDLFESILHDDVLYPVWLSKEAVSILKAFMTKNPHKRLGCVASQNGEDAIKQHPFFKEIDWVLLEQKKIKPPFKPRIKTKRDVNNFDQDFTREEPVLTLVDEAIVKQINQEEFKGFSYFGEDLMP
Procedure: PKC assay. […] 0.5 micro Ci[^γ32P]ATP was added. […] The reaction was stopped by spotting the reaction mixtures on 1×2 cm strips of cellulose phosphate paper (Whatman P81) and immediately washing twice for 1 hr in 0.5% H3PO4. The cellulose phosphate strips were counted in a scintillation counter. In some experiments, phosphatidylserine, diacylglycerol, and/or calcium were removed. […]
To determine their PKC isozyme specificity, fatty acid derivatives were preincubated with purified PKC for five minutes and the PKC activity was measured radiometrically.

PKC [1] = assay: PKC activation over time in H19-7/IGF-IR hippocampal cells; assay type: cell-based, rat; settings: 8 hours, data not shown
Procedure: Cell culture. Rat hippocampal H19-7/IGF-IR cells (ATCC, Manassas, Va.) were plated onto poly-L-lysine coated plates and grown at 35° C. in DMEM/10% FCS for several days until about 50% coverage was obtained. The cells were then induced to differentiate into a neuronal phenotype by replacing the medium with 5 ml N2 medium containing 10 ng/ml basic fibroblast growth factor at 39° C. and grown in T-75 flasks at 37° C. Human SH-SY5Y neuroblastoma cells (ATCC) were cultured in 45% F12K/45% MEM/10% FCS. Mouse N2A neuroblastoma cells were cultured in DMEM/10% FCS without glutamine. Rat hippocampal neurons from 18-day-old embryonic Sprague Dawley rat brains were plated on 12- or 96-well plates coated with poly-D-lysine (Sigma-Aldrich, St. Louis, Mo.) in B-27 neurobasal medium containing 0.5 mM glutamine and 25 μM glutamate (Invitrogen, Carlsbad, Calif.) and cultured for three days in the medium without glutamate. The neuronal cells were grown under 5% CO2 in an incubator maintained at 37° C. for 14 days.
Protein kinase C assay. Rat hippocampal cells were cultured and scraped in 0.2 ml homogenization buffer (20 mM Tris-HCl, pH 7.4, 50 mM NaF, 1 μg/ml leupeptin, and 0.1 mM PMSF) and homogenized by sonication a Marsonix microprobe sonicator (5 sec, 10W). To measure PKC, 10 μl of cell homogenate or purified PKC isozyme (purchased from Calbiochem) was incubated for 15 min at 37° C. in the presence of 10 μM histones, 4.89 mM CaCl2, 1.2 μg/μl phosphatidyl-L-serine, 0.18 μg/μl 1,2-dioctanoyl-sn-glycerol, 10 mM MgCl2, 20 mM HEPES (pH 7.4), 0.8 mM EDTA, 4 mM EGTA, 4% glycerol, 8 μg/ml aprotinin, 8 μg/ml leupeptin, and 2 mM benzamidine. 0.5 Ci [^γ32P]ATP was added and ^32P-phosphoprotein formation was measured by adsorption onto phosphocellulose as described previously. Nelson and Alkon, J. Neurochemistry (1995), vol. 65, pp. 2350-2357. For measurements of activation by BR-101 (DCP-LA) and similar compounds. PKC activity was measured in the absence of diacylglycerol and phosphatidylserine and PKC δ, ε, η, and μ were measured in the absence of added EGTA and CaCl2, as described by Kanno et al. (J. Lipid Res. 2006, vol. 47, pp. 1146-1150). Low concentrations of Ca^2+ are used because high Ca^2+ interacts with the PKC phosphatidylserine binding site and prevents activation. For measurements of bryostatin activation, 1,2-diacylglycerol was omitted unless otherwise stated.

PKC [2] = settings: cited from earlier work; for Ki: A-ring bryologs, read-out: affinity for PKC

Question: Which “effect on purified PKCε (FIG. 7, FIG. 8)” value (PKCε) does the source give for `CCCCCC1OC1C/C=C\CCCCCCCC(=O)OC` (stereo in doubt) [BR-117, vernolic acid methyl ester] here?
Answer: Its value is “little or no effect”.

Question: For `CCC1CC1CC1CC1CC1CC1CCCCCCCCO` (centres unmarked) [BR-104, linolenic alcohol tricyclopropane], which “effect on purified PKCε (FIG. 7, FIG. 8)” value (PKCε) is on record?
Answer: The value was “little or no effect”.

Question: For `CCCCCC1CC1CC1CC1CCCCCCCCO` (centres unmarked) [BR-105, linoleic alcohol dicyclopropane], which “effect on purified PKCε (FIG. 7, FIG. 8)” value (PKCε) is on record?
Answer: Its value is “little or no effect”.

Question: With `CCCCC[C@H]1O[C@H]1CC1CC1CCCCCCCC(=O)OC` (some centres unmarked) [BR-109, vernolic acid methyl ester cyclopropane] as the compound, how does the “concentrations at which PKCε is inhibited” value (PKCε) read?
Answer: Its value is “above 1 μM”.

Question: For `CCC1CC1CC1CC1CC1CC1CC1CC1CC1CC1CCCC(=O)OC` (centres unmarked) [BR-114], which “concentration needed to activate PKC, times lower than for BR-101 (DCP-LA)” value (PKCε) is on record?
Answer: Its value is “approximately 100 times”.

Question: And the “effect on purified PKCε (FIG. 7, FIG. 8)” value (PKCε)?
Answer: Its value is “activated”.

Question: For `CCCCCC1CC1CC1CC1CC1CC1CC1CC1CCCC(=O)OC` (centres unmarked) [BR-115, methyl 4-(2-((2-((2-((-pentylcyclopropyl)methyl)cyclopropyl)methyl)cyclopropyl)methyl)cyclopropyl)butanoate methyl ester], which “concentration needed to activate PKC, times lower than for BR-101 (DCP-LA)” value (PKCε) is on record?
Answer: Its value is “approximately 100 times”.

Question: And the “effect on purified PKCε (FIG. 7, FIG. 8)” value (PKCε)?
Answer: Its value is “activated”.

Question: Which “PKC activity at 8 hours (downregulation)” value (PKC [1]) does the source give for `CCCCCCCCCCCCCC(=O)O[C@@H]1[C@@H](C)[C@@]2(O)[C@@H](C=C(CO)C[C@]3(O)C(=O)C(C)=C[C@@H]23)[C@@H]2C(C)(C)[C@]12OC(C)=O` [PMA, phorbol 12-myristate 13-acetate] here?
Answer: Its value is “strongly downregulated”.

Question: For `CCCCCCCC(=O)OC1C(=CC(=O)OC)CC2CC(CO)OC(=O)CC(O)CCOC(C(C)(C)C)CC3CCOC(C=CC(C)(C)C1(O)O2)O3` (centres unmarked) [bryolog 3], which Ki (PKC [2]) is on record?
Answer: The Ki was 6.5 nM.

Question: For `CCCCCCCC(=O)OC1C(=CC(=O)OC)CC2CC(CO)OC(=O)CC(O)CCOC(c3ccccc3)CC3CCOC(C=CC(C)(C)C1(O)O2)O3` (centres unmarked) [bryolog 4], which Ki (PKC [2]) is on record?
Answer: Its Ki is 2.3 nM.

Question: Which Ki (PKC [2]) does the source give for `CCCCCCCC(=O)OC1C(=CC(=O)OC)CC2CC(CO)OC(=O)CC(O)CCOC(CCCc3ccc(Br)cc3)CC3CCOC(C=CC(C)(C)C1(O)O2)O3` (centres unmarked) [bryolog 5] here?
Answer: Its Ki is 1.9 nM.

Question: With epoxystearic acid [BR-116] as the compound, how does the “effect on purified PKCε (FIG. 7, FIG. 8)” value (PKCε) read?
Answer: Its value is “little or no effect”.
